Molecules are shown by their SMILES.

One compound from patent US11980633B2, “Method for treating cancer using a combination of DNA-damaging agents and DNA-PK inhibitors” (Vertex Pharmaceuticals Incorporated, priority 2016, dated 2024) can be followed below.

The assay has as its system pKAP1 and pH2AX levels in MDA-MB-436 and MDA-MB-468 breast cancer cells. The assay is described as follows: pKAP1 and pH2AX immunoblot, Compound B-2 and doxorubicin in MDA-MB-436 and MDA-MB-468 cells. It counts as cell-based, human. The following applies: 1 μM Compound B-2 + 500 nM doxorubicin; at 8 h. As to the method:
Materials and Methods. The human cancer cell lines A549 (CCL-185), DU4475 (HTB-123), MDA-MB-436 (HTB-130), and MDA-MB-468 (HTB-132) were obtained from American Type Culture Collection (ATCC; Manassas, VA). A 10 mM stock solution of Compound B-1 or Compound B-2 was prepared in DMSO and stored at −20° C. Etoposide and doxorubicin were purchased from Sigma-Aldrich (St. Louis, MO).
The A549 human lung cancer cell line was purchased from ATCC and was cultured in DMEM supplemented with 10% fetal bovine serum, 1× non-essential amino acids and 1× Penicillin/Streptomycin (complete medium). Cells were maintained at a subconfluent state by passaging every 2-3 days. Human breast cancer cells lines DU4475, MDA-MB-436, and MDA-MB-468 were purchased from ATCC and cultured in DMEM supplemented with 10% fetal bovine serum, 1× Glutamax and Penicillin/Streptomycin. Cells were maintained at a subconfluent state by passaging every 2-3 days.
Compound B-1 and Compound B-2 used in these experiments were not prepared as a co-crystals.
Breast cancer cell lines grown in 24-well (Costar, catalog #3526) or 6-well (Costar, catalog #3516) tissue culture plates to 70-80% confluence were pre-incubated with 1 μM Compound B-2 or DMSO for 15 min. Doxorubicin was added to a final concentration of either 100 nM or 500 nM from a 1000× stock prepared in DMSO. Cells were then incubated for the indicated amount of time and harvested for analysis.
Cell Lysis and Western Blot Analysis. […]
To determine that enhancement of DNA damage by concurrent treatment of cells with Compound B-2 and doxorubicin was not specific to DU4475 cells, two additional breast cancer cell lines, MDA-MB-436 and MDA-MB-468, were also pre-incubated with 1 μM Compound B-2 for 15 min, followed by addition of 500 nM doxorubicin. Cells were harvested at various time points following doxorubicin addition and analyzed for levels of pKAP1 and pH2AX by immunoblotting.
(In general: In western blotting, separated proteins are transferred to a membrane and probed.)

As to `[2H]c1nc(C)nc([2H])c1-c1cc(NC[C@@H](C)c2cccc3c(C(=O)NC)ccnc23)ncn1` [Compound B-2], the “pH2AX level, max enhancement vs doxorubicin alone” value was found to be 1.5 fold and the “pKAP1 level, max enhancement vs doxorubicin alone” value is on record as 3.5-4 fold.
